Laboratory results: patent US10005792B2, “Aminoindane-, aminotetrahydronaphthalene- and aminobenzocyclobutane-derived PRMT5-inhibitors” (CTXT PTY LTD, priority 2014, dated 2018)
Structures can show the parent of a compound that is named as a salt.

target: Full-length PRMT5 enzyme co-expressed with MEP50 (Homo sapiens (Human), UniProt O14744); assay: Revised PRMT5 Biochemical Assay; conditions: 1 μM histone H4 derived peptide substrate, 1 μM S-Adenosyl methionine, 4 hours at 37 degree Celsius, Transcreener EPIGEN fluorescence polarisation
Sequence (O14744 whole entry): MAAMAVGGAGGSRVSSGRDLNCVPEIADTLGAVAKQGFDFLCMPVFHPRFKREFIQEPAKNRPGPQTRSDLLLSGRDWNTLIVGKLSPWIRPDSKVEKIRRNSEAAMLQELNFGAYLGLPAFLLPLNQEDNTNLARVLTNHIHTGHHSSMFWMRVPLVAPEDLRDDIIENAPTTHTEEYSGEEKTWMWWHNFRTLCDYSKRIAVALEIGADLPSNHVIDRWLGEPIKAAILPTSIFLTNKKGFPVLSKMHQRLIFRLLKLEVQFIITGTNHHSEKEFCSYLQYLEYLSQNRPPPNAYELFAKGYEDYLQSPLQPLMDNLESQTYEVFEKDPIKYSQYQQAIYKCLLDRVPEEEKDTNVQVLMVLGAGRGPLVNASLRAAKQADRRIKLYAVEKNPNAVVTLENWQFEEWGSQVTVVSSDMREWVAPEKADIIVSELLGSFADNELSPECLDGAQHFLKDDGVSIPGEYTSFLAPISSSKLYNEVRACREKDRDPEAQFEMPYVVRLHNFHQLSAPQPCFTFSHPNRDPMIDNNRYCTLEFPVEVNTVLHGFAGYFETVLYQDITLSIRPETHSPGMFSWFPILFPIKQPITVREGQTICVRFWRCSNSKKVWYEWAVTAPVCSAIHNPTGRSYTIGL
Sequence (Q9BQA1 whole entry partner): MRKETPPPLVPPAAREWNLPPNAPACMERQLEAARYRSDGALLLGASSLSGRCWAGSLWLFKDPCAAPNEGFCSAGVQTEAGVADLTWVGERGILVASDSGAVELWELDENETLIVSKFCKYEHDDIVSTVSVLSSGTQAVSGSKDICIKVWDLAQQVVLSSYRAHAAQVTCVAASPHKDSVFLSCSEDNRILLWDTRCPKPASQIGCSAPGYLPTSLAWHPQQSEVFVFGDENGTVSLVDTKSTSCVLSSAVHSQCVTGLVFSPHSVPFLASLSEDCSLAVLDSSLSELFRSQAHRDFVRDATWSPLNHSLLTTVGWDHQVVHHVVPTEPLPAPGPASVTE
Experimental: Compounds of the invention may be tested for in vitro activity in the following assay: A histone H4 derived peptide is used as substrate (amino acid sequence: […]NH2). Full-length PRMT5 enzyme (NCBI Reference sequence NP-006100.2) was co-expressed with Hiss-MEP50 in insect cells and purified via Nickel immobilized metal affinity and gel filtration chromatography (“the enzyme”).
The 6 μL reactions are run in Greiner brand black 384-well low volume assay plates. All reactions contained assay buffer (phosphate buffered saline, 0.01% (v/v) Tween-20, 0.01% (w/v) albumin from chicken egg white, 1 mM Dithiothreitol, 1 μM peptide substrate, 1 μM S-Adenosyl methionine, and 15 ng/reaction enzyme, with the enzyme being omitted from negative control reactions. Compounds were added in a volume of 100 nL from dilution series prepared in DMSO, positive and negative control reactions receiving the same volume DMSO without compound. The plates were sealed with adhesive seals and incubated for 4 hours at 37 degree Celsius. Reaction progress was measured using the Transcreener™ EPIGEN methyltransferase assay (BellBrook Labs, Madison, Wis.) as recommended by the manufacturer. To each reaction 2 μL detection mix were added, containing coupling enzymes, fluorescence polarisation tracer, and AMP antibody. Plates were incubated for 90 minutes before being read on a PerkinElmer EnVision™ plate reader in fluorescence polarisation mode. IC50 values were obtained from the raw readings by calculating percent inhibition (% I) for each reaction relative to controls on the same plate (% I=(I−CN)/(CP−CN) where CN/CP are the averages of the negative/positive reactions, respectively), then fitting the % I data vs. compound concentration [I] to % I=([…]) where A is the lower asymptote, B is the upper asymptote, C is the IC50 value, and D is the slope.

In order of falling IC50:
1. O=C(NC[C@@H](O)CNC1Cc2ccccc2C1)c1ccccc1C(F)(F)F [Compound 118, (S)-N-(3-((2,3-dihydro-1H-inden-2-yl)amino)-2-hydroxypropyl)-2-(trifluoromethyl)benzamide]  103000 nM
2. O=C(NC[C@@H](O)CNC1Cc2ccccc2C1)c1cccc2cn[nH]c12 [Compound 132, (S)-N-(3-((2,3-dihydro-1H-inden-2-yl)amino)-2-hydroxypropyl)-1H-indazole-7-carboxamide]  29700 nM
3. O=C(NC[C@@H](O)CNC1Cc2ccccc2C1)c1cccc2[nH]ncc12 [Compound 128, (S)-N-(3-((2,3-dihydro-1H-inden-2-yl)amino)-2-hydroxypropyl)-1H-indazole-4-carboxamide]  15400 nM
4. O=C(NC[C@@H](O)CNC1Cc2ccccc2C1)c1cccc2[nH]cnc12 [Compound 120, (S)-N-(3-((2,3-dihydro-1H-inden-2-yl)amino)-2-hydroxypropyl)-1H-benzo[d]imidazole-4-carboxamide]  13300 nM
5. O=C(NC[C@@H](O)CNC1Cc2ccccc2C1)c1cccc2scnc12 [Compound 125, (S)-N-(3-((2,3-dihydro-1H-inden-2-yl)amino)-2-hydroxypropyl)benzo[d]thiazole-4-carboxamide]  6720 nM
6. O=C(NC[C@@H](O)CNC1Cc2ccccc2C1)c1cccc(OC(F)F)c1 [Compound 119, (S)-3-(difluoromethoxy)-N-(3-((2,3-dihydro-1H-inden-2-yl)amino)-2-hydroxypropyl)benzamide]  5080 nM
7. O=C(NC[C@@H](O)CNC1Cc2ccccc2C1)c1ccccc1Cl [Compound 131, (S)-2-chloro-N-(3-((2,3-dihydro-1H-inden-2-yl)amino)-2-hydroxypropyl)benzamide]  4590 nM
8. CCOc1c(C(=O)NC[C@@H](O)CNC2Cc3ccccc3C2)ccc(C(=O)N2CCOCC2)c1C [Compound 130, (S)-N-(3-((2,3-dihydro-1H-inden-2-yl)amino)-2-hydroxypropyl)-2-ethoxy-3-methyl-4-(morpholine-4-carbonyl)benzamide]  1130 nM
9. CCOc1cc(CC(=O)N2C3CCC2COC3)ccc1C(=O)NC[C@@H](O)CNC1Cc2ccccc2C1 [Compound 129, 4-(2-(3-oxa-8-azabicyclo[3.2.1]octan-8-yl)-2-oxoethyl)-N-((S)-3-((2,3-dihydro-1H-inden-2-yl)amino)-2-hydroxypropyl)-2-ethoxybenzamide]  629 nM
10. CCOc1cc(-c2nnc(C)o2)ccc1C(=O)NC[C@@H](O)CNC1Cc2ccccc2C1 [Compound 116, (S)-N-(3-((2,3-dihydro-1H-inden-2-yl)amino)-2-hydroxypropyl)-2-ethoxy-4-(5-methyl-1,3,4-oxadiazol-2-yl)benzamide]  276 nM
11. COc1cc(C(=O)N2C3CCC2COC3)ccc1C(=O)NC[C@@H](O)CNC1Cc2ccccc2C1 [Compound 134, 4-(3-Oxa-8-azabicyclo[3.2.1]octane-8-carbonyl)-N-((S)-3-((2,3-dihydro-1H-inden-2-yl)amino)-2-hydroxypropyl)-2-methoxybenzamide hydrochloride]  238 nM
12. CCOc1cc(C(=O)N2C3CCC2COC3)ncc1C(=O)NC[C@@H](O)CNC1Cc2ccccc2C1 [Compound 126, 6-(3-oxa-8-azabicyclo[3.2.1]octane-8-carbonyl)-N-((S)-3-((2,3-dihydro-1H-inden-2-yl(amino-2-hydroxypropyl)-4-ethoxynicotinamidedihydrochloride]  226 nM
13. CCOc1cc(C(=O)N2CCOCC2)c(C)cc1C(=O)NC[C@@H](O)CNC1Cc2ccccc2C1 [Compound 122, (S)-N-(3-((2,3-dihydro-1H-inden-2-yl)amino)-2-hydroxypropyl)-2-ethoxy-5-methyl-4-(morpholine-4-carbonyl)benzamide]  166 nM
14. O=C(NC[C@@H](O)CNC1Cc2ccccc2C1)c1ccc(C(=O)N2[C@@H]3CCC[C@H]2COC3)cc1 [Compound 136, 4-((1R,5S)-3-Oxa-9-azabicyclo[3.3.1]nonane-9-carbonyl)-N—((S)-3-((2,3-dihydro-1H-inden-2-yl)amino)-2-hydroxypropyl)benzamide]  50 nM
